Laboratory results published in patent publication US20260027068A1, “METHODS OF ADM[…]-KETAMINE” (Perception Neuroscience, Inc., priority 2022, published 2026).

Experiments:
subjects with TRD [1] = assay: Clinician-Administered Dissociative States Scale (CADSS)
Experimental: (§1) The Investigational Medicinal Product (IMP) R(−)-ketamine hydrochloride in sterile water for intravenous injection was investigated as an […] treatment of TRD. The International Union of Pure and Applied Chemistry (IUPAC) name is of the IMP is (2R)-2-(2-chlorophenyl)-2-(methylamino)cyclohexan-1-one. Subjects received the solution at either 30 mg or 60 mg dose, or a placebo. The IMP or placebo was administered on Day 1 as a single IV infusion via an electronic infusion pump over 40 minutes. The duration of study participation for each subject was up to 29 days including a screening period, a 3-day in-clinic visit, and 2 follow-up visits. 101 subjects were enrolled in approximately 20 study centers in the EU and the US.
The CADSS was to assess the alertness or dissociative state of subjects administered R(−)-ketamine. The study staff evaluated the subject's degree of dissociation by administering the CADSS questionnaire pre-dose; at 40 minutes post-dose (at EoI); and at 2 and 4 hours post-dose.

subjects with TRD [2] = settings: single IV infusion 0.5 mg/kg; 7 subjects with TRD; cited from earlier work
healthy subjects = tested on: healthy subjects
Text: To date, there has been one clinical trial that evaluated the safety of R(−)-ketamine.

Pulse (vital signs) = assay: Pulse (vital signs)
Experimental: as §1
Tympanic or temporal temperature, heart rate, blood pressure (SBP/DBP), respiratory rate, and SpO2 were assessed. Blood pressure and pulse measurements will be assessed with a completely automated device while the subject is supine or semi-supine. Manual techniques will be used only if an automated device is not available. Blood pressure and pulse measurements should be preceded by at least 5 minutes of rest for the subject in a quiet setting without distractions (e.g., television, cell phones). An abnormal blood pressure value at screening may be repeated once after 5 minutes of relaxation to determine the subject's eligibility. Blood pressure was recorded using the same arm and position (supine or semi-supine) throughout the study, where possible. Vital signs (to be taken before blood collection for laboratory tests) consisted of 1 pulse and 3 blood pressure measurements (3 consecutive blood pressure readings will be recorded at intervals of at least 1 minute). The average of the 3 blood pressure readings was recorded in the CRF. A pulse oximeter was used to measure peripheral capillary oxygen saturation (SpO2) continuously from pre-dose until 4-hours post-dose. A pulse oximeter was clipped onto the finger or foot of the subject, and light will be sent through the finger or foot and measured on the other side.
In these tables, baseline value is defined as the last non-missing value prior to study drug administration.

[3] = tested on: cytochrome P450 (CYP) isoforms; assay: In vitro drug metabolism: CYP isoforms involved
rats = assay: Precipitated withdrawal from morphine; assay type: in vivo

Structure (SMILES): CN[C@@]1(c2ccccc2Cl)CCCCC1=O.Cl [R(−)-ketamine, (2R)-2-(2-chlorophenyl)-2-(methylamino)cyclohexan-1-one]
- Subjects with post-baseline CADSS >4 and change from baseline >0, number (subjects with TRD [1]; 30 mg (n = 33)): 12 n
- Subjects with post-baseline CADSS >4 and change from baseline >0, percent (subjects with TRD [1]; 30 mg (n = 33)): (36.4) %
- Subjects with post-baseline CADSS >4 and change from baseline >0, number (subjects with TRD [1]; 60 mg (n = 35)): 8 n
- Subjects with post-baseline CADSS >4 and change from baseline >0, percent (subjects with TRD [1]; 60 mg (n = 35)): (22.9) %
- Antidepressant effects and safety profile (subjects with TRD [2]): fast-onset and sustained antidepressant effects with a favorable safety profile
- Safety findings compared with 100 mg or 150 mg doses (healthy subjects; 30 mg and 60 mg doses): fewer transient elevations in mean systemic blood pressure, less sedation, fewer psychological or psychotic and dissociative effects, and fewer episodes of altered consciousness
- Dose level most similar to 15 mg S(+)-ketamine in terms of safety profile (healthy subjects; healthy subjects): 60 mg
- Doses with acceptable safety profiles (healthy subjects; single 40-minute IV infusions, healthy subjects): ≤ 150 mg
- Pulse: Mean (Pulse (vital signs); 30 mg, Day 1, 15 minutes): 69.4 beats/minute
- Pulse: Median (Pulse (vital signs); 30 mg, Day 1, 15 minutes): 70.0 beats/minute
- Pulse: Mean (Pulse (vital signs); 30 mg, Day 1, 40 minutes): 69.9 beats/minute
- Pulse: Median (Pulse (vital signs); 30 mg, Day 1, 40 minutes): 70.0 beats/minute
- Pulse: Mean (Pulse (vital signs); 30 mg, Day 1, 60 minutes): 67.2 beats/minute
- Pulse: Median (Pulse (vital signs); 30 mg, Day 1, 60 minutes): 68.5 beats/minute
- Pulse: Mean (Pulse (vital signs); 30 mg, Day 1, 2 hours): 70.7 beats/minute
- Pulse: Median (Pulse (vital signs); 30 mg, Day 1, 2 hours): 70.0 beats/minute
- Pulse: Mean (Pulse (vital signs); 30 mg, Day 1, 4 hours): 72.1 beats/minute
- Pulse: Median (Pulse (vital signs); 30 mg, Day 1, 4 hours): 72.0 beats/minute
- Pulse: Mean (Pulse (vital signs); 30 mg, Day 1, 6 hours): 70.7 beats/minute
- Pulse: Median (Pulse (vital signs); 30 mg, Day 1, 6 hours): 72.0 beats/minute
- Pulse: Mean (Pulse (vital signs); 30 mg, Day 2 - Discharge): 73.5 beats/minute
- Pulse: Median (Pulse (vital signs); 30 mg, Day 2 - Discharge): 75.0 beats/minute
- Pulse: Mean (Pulse (vital signs); 30 mg, Day 8): 74.1 beats/minute
- Pulse: Median (Pulse (vital signs); 30 mg, Day 8): 74.0 beats/minute
- Pulse: Mean (Pulse (vital signs); 30 mg, Day 15): 74.4 beats/minute
- Pulse: Median (Pulse (vital signs); 30 mg, Day 15): 75.0 beats/minute
- Pulse: Change from Baseline, Mean (Pulse (vital signs); 30 mg, to Day 1, 15 minutes): −0.4 beats/minute
- Pulse: Change from Baseline, Median (Pulse (vital signs); 30 mg, to Day 1, 15 minutes): 0.0 beats/minute
- Pulse: Change from Baseline, Mean (Pulse (vital signs); 30 mg, to Day 1, 40 minutes): −0.6 beats/minute
- Pulse: Change from Baseline, Median (Pulse (vital signs); 30 mg, to Day 1, 40 minutes): −1.0 beats/minute
- Pulse: Change from Baseline, Mean (Pulse (vital signs); 30 mg, to Day 1, 60 minutes): −2.5 beats/minute
- Pulse: Change from Baseline, Median (Pulse (vital signs); 30 mg, to Day 1, 60 minutes): −3.5 beats/minute
- Pulse: Change from Baseline, Mean (Pulse (vital signs); 30 mg, to Day 1, 2 hours): 0.2 beats/minute
- Pulse: Change from Baseline, Median (Pulse (vital signs); 30 mg, to Day 1, 2 hours): −2.0 beats/minute
- Pulse: Change from Baseline, Mean (Pulse (vital signs); 30 mg, to Day 1, 4 hours): 1.6 beats/minute
- Pulse: Change from Baseline, Median (Pulse (vital signs); 30 mg, to Day 1, 4 hours): 2.0 beats/minute
- Pulse: Change from Baseline, Mean (Pulse (vital signs); 30 mg, to Day 1, 6 hours): 0.2 beats/minute
- Pulse: Change from Baseline, Median (Pulse (vital signs); 30 mg, to Day 1, 6 hours): 1.0 beats/minute
- Pulse: Change from Baseline, Mean (Pulse (vital signs); 30 mg, to Day 2 - Discharge): 3.1 beats/minute
- Pulse: Change from Baseline, Median (Pulse (vital signs); 30 mg, to Day 2 - Discharge): 2.0 beats/minute
- Pulse: Change from Baseline, Mean (Pulse (vital signs); 30 mg, to Day 8): 2.1 beats/minute
- Pulse: Change from Baseline, Median (Pulse (vital signs); 30 mg, to Day 8): 1.0 beats/minute
- Pulse: Change from Baseline, Mean (Pulse (vital signs); 30 mg, to Day 15): 3.3 beats/minute
- Pulse: Change from Baseline, Median (Pulse (vital signs); 30 mg, to Day 15): 2.0 beats/minute
- Pulse: Mean (Pulse (vital signs); 60 mg, Day 1, 15 minutes): 67.3 beats/minute
- Pulse: Median (Pulse (vital signs); 60 mg, Day 1, 15 minutes): 66.5 beats/minute
- Pulse: Mean (Pulse (vital signs); 60 mg, Day 1, 40 minutes): 68.0 beats/minute
- Pulse: Median (Pulse (vital signs); 60 mg, Day 1, 40 minutes): 68.0 beats/minute
- Pulse: Mean (Pulse (vital signs); 60 mg, Day 1, 60 minutes): 64.9 beats/minute
- Pulse: Median (Pulse (vital signs); 60 mg, Day 1, 60 minutes): 65.0 beats/minute
- Pulse: Mean (Pulse (vital signs); 60 mg, Day 1, 2 hours): 68.2 beats/minute
- Pulse: Median (Pulse (vital signs); 60 mg, Day 1, 2 hours): 70.0 beats/minute
- Pulse: Mean (Pulse (vital signs); 60 mg, Day 1, 4 hours): 70.7 beats/minute
- Pulse: Median (Pulse (vital signs); 60 mg, Day 1, 4 hours): 72.0 beats/minute
- Pulse: Mean (Pulse (vital signs); 60 mg, Day 1, 6 hours): 72.6 beats/minute
- Pulse: Median (Pulse (vital signs); 60 mg, Day 1, 6 hours): 71.0 beats/minute
- Pulse: Mean (Pulse (vital signs); 60 mg, Day 2 - Discharge): 72.2 beats/minute
- Pulse: Median (Pulse (vital signs); 60 mg, Day 2 - Discharge): 70.0 beats/minute
- Pulse: Mean (Pulse (vital signs); 60 mg, Day 8): 73.3 beats/minute
- Pulse: Median (Pulse (vital signs); 60 mg, Day 8): 70.0 beats/minute
- Pulse: Mean (Pulse (vital signs); 60 mg, Day 15): 71.0 beats/minute
- Pulse: Median (Pulse (vital signs); 60 mg, Day 15): 69.0 beats/minute
- Pulse: Change from Baseline, Mean (Pulse (vital signs); 60 mg, to Day 1, 15 minutes): 0.0 beats/minute
- Pulse: Change from Baseline, Median (Pulse (vital signs); 60 mg, to Day 1, 15 minutes): 0.5 beats/minute
- Pulse: Change from Baseline, Mean (Pulse (vital signs); 60 mg, to Day 1, 40 minutes): −4.7 beats/minute
- Pulse: Change from Baseline, Median (Pulse (vital signs); 60 mg, to Day 1, 40 minutes): −5.0 beats/minute
- Pulse: Change from Baseline, Mean (Pulse (vital signs); 60 mg, to Day 1, 60 minutes): −2.3 beats/minute
- Pulse: Change from Baseline, Median (Pulse (vital signs); 60 mg, to Day 1, 60 minutes): −1.0 beats/minute
- Pulse: Change from Baseline, Mean (Pulse (vital signs); 60 mg, to Day 1, 2 hours): −4.5 beats/minute
- Pulse: Change from Baseline, Median (Pulse (vital signs); 60 mg, to Day 1, 2 hours): −5.0 beats/minute
- Pulse: Change from Baseline, Mean (Pulse (vital signs); 60 mg, to Day 1, 4 hours): −2.0 beats/minute
- Pulse: Change from Baseline, Median (Pulse (vital signs); 60 mg, to Day 1, 4 hours): −1.0 beats/minute
- Pulse: Change from Baseline, Mean (Pulse (vital signs); 60 mg, to Day 1, 6 hours): −0.3 beats/minute
- Pulse: Change from Baseline, Median (Pulse (vital signs); 60 mg, to Day 1, 6 hours): 0.5 beats/minute
- Pulse: Change from Baseline, Mean (Pulse (vital signs); 60 mg, to Day 2 - Discharge): −0.6 beats/minute
- Pulse: Change from Baseline, Median (Pulse (vital signs); 60 mg, to Day 2 - Discharge): −1.0 beats/minute
- Pulse: Change from Baseline, Mean (Pulse (vital signs); 60 mg, to Day 8): 0.6 beats/minute
- Pulse: Change from Baseline, Median (Pulse (vital signs); 60 mg, to Day 8): 0.0 beats/minute
- Pulse: Change from Baseline, Mean (Pulse (vital signs); 60 mg, to Day 15): −1.7 beats/minute
- Pulse: Change from Baseline, Median (Pulse (vital signs); 60 mg, to Day 15): 0.0 beats/minute
- CYP isoforms involved in the metabolism [3]: primarily CYP2B6, CYP3A4/5, and CYP2C19
- Effect on symptoms of precipitated withdrawal from morphine (rats): significantly ameliorated the symptoms of precipitated withdrawal from morphine
